Among the data in ChEMBL document CHEMBL4017512 (J Med Chem, 2017) are IC50 values, retold here.

The subject of one assay is L1210. The assay can be described thus: Antiproliferative activity against mouse L1210 cells after 72 hrs by phosphatase assay. In kind it is functional, cell-based. Particulars: L1210, 72 h.
Assay [1] in a line: Cytotoxicity against human HCT116/VM46 cells assessed as reduction in cell viability after 72 hrs by phosphatase assay. In kind it is cell-based. The following applies: HCT-116/VM46, 72 h.
A further assay has as its system HCT-116. The experiment in a line: Antiproliferative activity against human HCT116 cells after 72 hrs by phosphatase assay. Format: functional, cell-based. Particulars: HCT-116, 72 h.

Take `CC[C@]1(NC(=O)c2ccc(Cl)c(Cl)c2)C[C@H]2CN(CCc3c([nH]c4ccccc34)[C@@](C(=O)OC)(c3cc4c(cc3OC)N(C)[C@H]3[C@@](O)(C(=O)OC)[C@H](OC(C)=O)[C@]5(CC)C=CCN6CC[C@]43[C@@H]65)C2)C1`: the IC50 stood at 8.5 nM with L1210, 80 nM in assay [1] and 8.7 nM with HCT-116.

For the compound `CC[C@]1(NC(=O)c2cc(C)c(OCc3ccccc3)c(C)c2)C[C@H]2CN(CCc3c([nH]c4ccccc34)[C@@](C(=O)OC)(c3cc4c(cc3OC)N(C)[C@H]3[C@@](O)(C(=O)OC)[C@H](OC(C)=O)[C@]5(CC)C=CCN6CC[C@]43[C@@H]65)C2)C1`, the concentration for half-maximal inhibition (IC50) with L1210 was 30 nM; in assay [1], 80 nM; with HCT-116, 30 nM.

As to `CC[C@]1(NC(=O)c2cc(OC)c(OC)c(OC)c2)C[C@H]2CN(CCc3c([nH]c4ccccc34)[C@@](C(=O)OC)(c3cc4c(cc3OC)N(C)[C@H]3[C@@](O)(C(=O)OC)[C@H](OC(C)=O)[C@]5(CC)C=CCN6CC[C@]43[C@@H]65)C2)C1`, the IC50 in the assay with L1210 came to 0.09 nM; in assay [1], 2.4 nM; with HCT-116, 0.1 nM.

As to `CC[C@]1(NS(=O)(=O)c2ccccc2[N+](=O)[O-])C[C@H]2CN(CCc3c([nH]c4ccccc34)[C@@](C(=O)OC)(c3cc4c(cc3OC)N(C)[C@H]3[C@@](O)(C(=O)OC)[C@H](OC(C)=O)[C@]5(CC)C=CCN6CC[C@]43[C@@H]65)C2)C1`, the concentration for half-maximal inhibition (IC50) with L1210 was 360 nM; in assay [1] it was 440 nM; in the assay with HCT-116 it was 420 nM.

For `CC[C@]1(NC(=O)c2cccc(SC)c2)C[C@H]2CN(CCc3c([nH]c4ccccc34)[C@@](C(=O)OC)(c3cc4c(cc3OC)N(C)[C@H]3[C@@](O)(C(=O)OC)[C@H](OC(C)=O)[C@]5(CC)C=CCN6CC[C@]43[C@@H]65)C2)C1`, the 50% inhibitory concentration (IC50) in the assay with L1210 was determined as 5.4 nM; in assay [1], 20 nM; with HCT-116, 2.3 nM.

Take `CC[C@]1(NC(=O)c2ccc(F)cc2)C[C@H]2CN(CCc3c([nH]c4ccccc34)[C@@](C(=O)OC)(c3cc4c(cc3OC)N(C)[C@H]3[C@@](O)(C(=O)OC)[C@H](OC(C)=O)[C@]5(CC)C=CCN6CC[C@]43[C@@H]65)C2)C1`: the half-maximal inhibitory concentration (IC50) is 1.8 nM in the assay with L1210, 25 nM in assay [1] and 1.4 nM in the assay on HCT-116.

Regarding `CC[C@]1(NC(=O)c2cc(C)c(OC)c(C)c2)C[C@H]2CN(CCc3c([nH]c4ccccc34)[C@@](C(=O)OC)(c3cc4c(cc3OC)N(C)[C@H]3[C@@](O)(C(=O)OC)[C@H](OC(C)=O)[C@]5(CC)C=CCN6CC[C@]43[C@@H]65)C2)C1`, the IC50 stood at 0.5 nM with L1210, 3.5 nM in assay [1] and 0.65 nM in the assay with HCT-116.

Consider `CC[C@]1(NC(=O)c2ccc(OC(C)C)cc2)C[C@H]2CN(CCc3c([nH]c4ccccc34)[C@@](C(=O)OC)(c3cc4c(cc3OC)N(C)[C@H]3[C@@](O)(C(=O)OC)[C@H](OC(C)=O)[C@]5(CC)C=CCN6CC[C@]43[C@@H]65)C2)C1`, for which the IC50 worked out at 0.7 nM in the assay with L1210, 6.6 nM in assay [1] and 0.8 nM with HCT-116.

Regarding `CC[C@]1(NC(=O)c2ccc3c(c2)ncn3C)C[C@H]2CN(CCc3c([nH]c4ccccc34)[C@@](C(=O)OC)(c3cc4c(cc3OC)N(C)[C@H]3[C@@](O)(C(=O)OC)[C@H](OC(C)=O)[C@]5(CC)C=CCN6CC[C@]43[C@@H]65)C2)C1`, the IC50 in the assay on L1210 turned out to be 0.7 nM; in assay [1] it was 8 nM; with HCT-116, 0.6 nM.

With `CC[C@]1(NC(=O)c2ccccc2C)C[C@H]2CN(CCc3c([nH]c4ccccc34)[C@@](C(=O)OC)(c3cc4c(cc3OC)N(C)[C@H]3[C@@](O)(C(=O)OC)[C@H](OC(C)=O)[C@]5(CC)C=CCN6CC[C@]43[C@@H]65)C2)C1`, the concentration for half-maximal inhibition (IC50) in the assay with L1210 stood at 55 nM; in assay [1], 540 nM; with HCT-116 it was 50 nM.

Turning to `CCCc1ccc(C(=O)N[C@@]2(CC)C[C@H]3CN(CCc4c([nH]c5ccccc45)[C@@](C(=O)OC)(c4cc5c(cc4OC)N(C)[C@H]4[C@@](O)(C(=O)OC)[C@H](OC(C)=O)[C@]6(CC)C=CCN7CC[C@]54[C@@H]76)C3)C2)cc1`, the IC50 turned out to be 4.3 nM in the assay on L1210, 35 nM in assay [1] and 4.8 nM in the assay with HCT-116.

As for `CC[C@]1(NC(=O)c2nc3ccccc3o2)C[C@H]2CN(CCc3c([nH]c4ccccc34)[C@@](C(=O)OC)(c3cc4c(cc3OC)N(C)[C@H]3[C@@](O)(C(=O)OC)[C@H](OC(C)=O)[C@]5(CC)C=CCN6CC[C@]43[C@@H]65)C2)C1`, the figures for the IC50 (in the assay with L1210; in assay [1]; in the assay with HCT-116) were 60 nM, 190 nM and 60 nM, respectively.

On to `CC[C@]1(NC(=O)c2ccc(N)cc2)C[C@H]2CN(CCc3c([nH]c4ccccc34)[C@@](C(=O)OC)(c3cc4c(cc3OC)N(C)[C@H]3[C@@](O)(C(=O)OC)[C@H](OC(C)=O)[C@]5(CC)C=CCN6CC[C@]43[C@@H]65)C2)C1`, for which the IC50 in the assay on L1210 was 0.4 nM; in assay [1], 4.8 nM; in the assay on HCT-116 it was 0.4 nM.

As for `CCC(C)c1ccc(C(=O)N[C@@]2(CC)C[C@H]3CN(CCc4c([nH]c5ccccc45)[C@@](C(=O)OC)(c4cc5c(cc4OC)N(C)[C@H]4[C@@](O)(C(=O)OC)[C@H](OC(C)=O)[C@]6(CC)C=CCN7CC[C@]54[C@@H]76)C3)C2)cc1` (stereo partly drawn), the results for the 50% inhibitory concentration (IC50) (with L1210; in assay [1]; in the assay with HCT-116) were 25 nM, 65 nM and 15 nM, respectively.

Consider `CC[C@]1(NC(=O)C2CCOCC2)C[C@H]2CN(CCc3c([nH]c4ccccc34)[C@@](C(=O)OC)(c3cc4c(cc3OC)N(C)[C@H]3[C@@](O)(C(=O)OC)[C@H](OC(C)=O)[C@]5(CC)C=CCN6CC[C@]43[C@@H]65)C2)C1`, for which the half-maximal inhibitory concentration (IC50) in the assay on L1210 is 70 nM; in assay [1], 3500 nM; with HCT-116, 35 nM.

On to `CC[C@]1(NC(=O)c2ccc3ncoc3c2)C[C@H]2CN(CCc3c([nH]c4ccccc34)[C@@](C(=O)OC)(c3cc4c(cc3OC)N(C)[C@H]3[C@@](O)(C(=O)OC)[C@H](OC(C)=O)[C@]5(CC)C=CCN6CC[C@]43[C@@H]65)C2)C1`, for which the IC50 turned out to be 0.6 nM with L1210, 30 nM in assay [1] and 0.6 nM with HCT-116.

On to `CC[C@]1(NC(=O)c2cncs2)C[C@H]2CN(CCc3c([nH]c4ccccc34)[C@@](C(=O)OC)(c3cc4c(cc3OC)N(C)[C@H]3[C@@](O)(C(=O)OC)[C@H](OC(C)=O)[C@]5(CC)C=CCN6CC[C@]43[C@@H]65)C2)C1`, for which the half-maximal inhibitory concentration (IC50) came to 1.8 nM in the assay with L1210, 45 nM in assay [1] and 0.6 nM with HCT-116.

For the compound `CC[C@]1(NC(=O)c2ccc(N(C)C(=O)OC(C)(C)C)cc2)C[C@H]2CN(CCc3c([nH]c4ccccc34)[C@@](C(=O)OC)(c3cc4c(cc3OC)N(C)[C@H]3[C@@](O)(C(=O)OC)[C@H](OC(C)=O)[C@]5(CC)C=CCN6CC[C@]43[C@@H]65)C2)C1`, the values for the half-inhibitory concentration (IC50) (with L1210; in assay [1]; in the assay with HCT-116) were 4.1 nM, 35 nM and 3.9 nM, respectively.

For the compound `CC[C@]1(NC(=O)c2ccc(C)c(NC(C)=O)c2)C[C@H]2CN(CCc3c([nH]c4ccccc34)[C@@](C(=O)OC)(c3cc4c(cc3OC)N(C)[C@H]3[C@@](O)(C(=O)OC)[C@H](OC(C)=O)[C@]5(CC)C=CCN6CC[C@]43[C@@H]65)C2)C1`, the IC50 in the assay with L1210 stood at 5.4 nM; in assay [1] it was 330 nM; in the assay on HCT-116 it was 4.3 nM.

Consider `CCC(=O)N[C@@]1(CC)C[C@H]2CN(CCc3c([nH]c4ccccc34)[C@@](C(=O)OC)(c3cc4c(cc3OC)N(C)[C@H]3[C@@](O)(C(=O)OC)[C@H](OC(C)=O)[C@]5(CC)C=CCN6CC[C@]43[C@@H]65)C2)C1`, for which the half-inhibitory concentration (IC50) with L1210 came out at 60 nM; in assay [1], 2100 nM; with HCT-116, 60 nM.

Consider `CC[C@]1(NC(=O)c2ccc(S(=O)(=O)F)cc2)C[C@H]2CN(CCc3c([nH]c4ccccc34)[C@@](C(=O)OC)(c3cc4c(cc3OC)N(C)[C@H]3[C@@](O)(C(=O)OC)[C@H](OC(C)=O)[C@]5(CC)C=CCN6CC[C@]43[C@@H]65)C2)C1`, for which the results for the IC50 (in the assay with L1210; in assay [1]; in the assay with HCT-116) were 20 nM, 310 nM and 30 nM, respectively.

As to `CC[C@]1(NC(=O)c2ccco2)C[C@H]2CN(CCc3c([nH]c4ccccc34)[C@@](C(=O)OC)(c3cc4c(cc3OC)N(C)[C@H]3[C@@](O)(C(=O)OC)[C@H](OC(C)=O)[C@]5(CC)C=CCN6CC[C@]43[C@@H]65)C2)C1`, the IC50 in the assay on L1210 came to 0.7 nM; in assay [1], 12 nM; with HCT-116 it was 0.7 nM.

`CC[C@]1(NC(=O)c2ccc(OC)cc2)C[C@H]2CN(CCc3c([nH]c4ccccc34)[C@@](C(=O)OC)(c3cc4c(cc3OC)N(C)[C@H]3[C@@](O)(C(=O)OC)[C@H](OC(C)=O)[C@]5(CC)C=CCN6CC[C@]43[C@@H]65)C2)C1`: the results for the IC50 (with L1210; in assay [1]; with HCT-116) were 0.25 nM, 7.6 nM and 0.3 nM, respectively.

Consider `CC[C@]1(NC(=O)C(C)C)C[C@H]2CN(CCc3c([nH]c4ccccc34)[C@@](C(=O)OC)(c3cc4c(cc3OC)N(C)[C@H]3[C@@](O)(C(=O)OC)[C@H](OC(C)=O)[C@]5(CC)C=CCN6CC[C@]43[C@@H]65)C2)C1`, for which the results for the IC50 (in the assay with L1210; in assay [1]; in the assay on HCT-116) were 70 nM, 1400 nM and 90 nM, respectively.

Take `CC[C@]1(NC(=O)c2ccc(OC)c(OC)c2)C[C@H]2CN(CCc3c([nH]c4ccccc34)[C@@](C(=O)OC)(c3cc4c(cc3OC)N(C)[C@H]3[C@@](O)(C(=O)OC)[C@H](OC(C)=O)[C@]5(CC)C=CCN6CC[C@]43[C@@H]65)C2)C1`: the half-maximal inhibitory concentration (IC50) in the assay with L1210 amounted to 0.06 nM; in assay [1] it was 1.4 nM; in the assay on HCT-116, 0.07 nM.

For `CC[C@]1(NC(=O)c2ccc(OC)c(Br)c2)C[C@H]2CN(CCc3c([nH]c4ccccc34)[C@@](C(=O)OC)(c3cc4c(cc3OC)N(C)[C@H]3[C@@](O)(C(=O)OC)[C@H](OC(C)=O)[C@]5(CC)C=CCN6CC[C@]43[C@@H]65)C2)C1`, the IC50 in the assay on L1210 stood at 5.1 nM; in assay [1] it was 40 nM; in the assay on HCT-116, 6.2 nM.
